Where “and” joins values, the source holds several entries; their conditions need not be identical. Equal values may be shown once. Entries after “also recorded” stand apart in the source; their conditions may differ.
Columns and labels:
[1] = tested on: AA cells; assay: Oxygen equilibrium studies with normal whole blood; type: cell-based, human; settings: for n50 (Hill coefficient at 50% saturation in the presence of compound) / ΔP50 = P50d − P50c / P50d (value in the presence of compound): thiophene aldehydes, 5 mM, whole blood; for P50d (value in the presence of compound): repeat measurements; for P50: AA cells 40% hematocrit; for effect on the OEC of whole blood: normal adult whole blood, multi-point tonometry, in vitro
[2] = tested on: SS cells; assay: Antisickling studies with homozygous sickle red blood cells; type: cell-based, human; settings: for predicted antisickling activities: not determined, predicted from structure-activity relationships
[3] = molecular target: T1, HbS (Homo sapiens, UniProt P68871+P69905, E7V); assay: HbS adduct formation, cation-exchange HPLC of hemolysate from compound-treated SS cells; type: cell-based; settings: 5 mM compound, HPLC of hemolysate after incubation with SS cells
T1 construct: The compound-treated SS cells obtained in the preceding experiment (oxygen equilibrium studies with SS cells) were hemolyzed; endogenous in cells; host or cells: homozygous sickle red blood (SS) cells from patients with SCD; hemolysate of the compound-treated cells

[4] = molecular target: T2, Hb (Homo sapiens, UniProt P69905); assay: Co-crystallization of compounds with Hb, X-ray crystallography; type: binding; set-up: Purified human adult Hb in 50 mM Bis Tris buffer, pH 6.8, was prepared from discarded human blood; from tissue; host or cells: discarded human blood; Hb purified in house as in Safo and Abraham, 2003; settings: deoxy Hb
[5] = tested on: SS cells; assay: Antisickling studies with homozygous sickle red blood cells; type: cell-based, human; settings: for inhibition at 5000 µM: Homo sapiens, Erythrocyte, read-out: Inhibition of sickling of SS cells
Method: Briefly, SS cells suspended in buffered saline solution, pH 7.4 (hematocrit of 10 %) were incubated at 37° C. with 4% oxygen in the presence of 5 mM compound. Aliquots (10 ul) of the suspensions were obtained after 5 hrs and fixed with 2% glutaraldehyde solution without exposure to air. Morphological analysis and percentage of SS cells that were not sickled were conducted using a computer-assisted image analysis system as described elsewhere (Hijiya, 1991).

[6] = tested on: Tg sickle mice; assay: In vivo antisickling effect in transgenic sickle mice exposed to hypoxia; settings: 5% oxygen
Text: In vivo antisickling effect of 5-HMF was investigated using transgenic (Tg) mice that produce human Hb S. Since the blood of wild type mice has an extremely right-shifted OEC (P50 of mouse blood: 40–44 mm Hg) as compared with the OEC of human blood (P50 of AA cells: 26.5 mm Hg; SS cells: 32 mm Hg), Tg sickle mice that produce approximately equal amounts of human and mouse […] and 100% human β^s-globin were used in this study. The P50 of these mice are between 26 and 34 mm Hg depending on the percentage of mouse β-globin. We used 5% oxygen (5% O2, 95% N2), because they develop pulmonary sequestration almost exclusively upon exposure of these mice to 5% O2. […] Upon exposure to hypoxia, we determine the percentage of sickled cells in the blood as well as the survival time. […] In the hypoxia experiments, the Tg sickle mice were exposed to hypoxia for up to 1 hr; any surviving mice at 1 hr were euthanized by cervical dislocation under anesthesia. In all cases, after the mouse died, it was immediately dissected. The heart, lungs, brain, liver, spleen, and kidneys were fixed in 10% phosphate-buffered formalin. Tissue samples were embedded in paraffin according to standard methods. Sections were cut and stained by a hematoxylin-eosin solution for light microscopy.

[7] = tested on: SS cells; assay: Oxygen equilibrium studies with homozygous sickle red blood cells; type: cell-based, human; settings: 5 mM compound; for SS cells P50: SS cells 10% hematocrit; for SS cells ΔP50: treated minus control
Method: SS cells were suspended in PBS to a final hematocrit of 10%. […] A 40 uL aliquot of this suspension was added to 4 ml Hemox buffer and subjected to oxygen equilibrium analysis (37° C.) using a Hemox-Analyzer (TCS Scientific Corp., Southampton, Pa.) (Asakura, 1979).

[8] = molecular target: T1, HbS; assay: Oxygen equilibrium analysis of hemolysate from compound-treated SS cells; type: cell-based; settings: hemolysate after incubation of 5 mM compound with SS cells; for Hemolysate ΔP50: treated minus control
[9] = tested on: SS cells; assay: Effect of compounds on homozygous sickle red blood cell size (MCV); type: cell-based, human; settings: for changes in cell volumes of SS cells: 1, 2, and 5 mM compound
Method: To study the effect of the compounds on the degree of hydration/dehydration of SS cells, the compound-treated SS cells obtained in the preceding experiment (antisickling studies with SS cells) were evaluated with a Hemavet Cell Analyzer to determine the mean corpuscular volume (MCV).

[10] = tested on: patients with SCD; settings: cited from earlier work; for clinical toxicity: human, in vivo
[11] = molecular target: T2, Hb; settings: Schiff base with N-terminal Val1 of T state Hb; cited from earlier work
[12] = cited from earlier work
[13] = 5 mM compound, P50 of treated AA cells minus P50 of control
[14] = 5 mM compound, 4% oxygen, 10% hematocrit, 5 hrs

## Cc1ccsc1C=O [3-Methyl-2-thiophenecarboxyaldehyde]
[1]
  n50 (Hill coefficient at 50% saturation in the presence of compound): 2.35
  ΔP50 = P50d − P50c: −7.01 mmHg
  P50d (value in the presence of compound): 21.55 mmHg and 20.63 mmHg

## O=Cc1cc(Br)cs1 [4-Bromo-2-thiophenecarboxyaldehyde]
[1]
  n50 (Hill coefficient at 50% saturation in the presence of compound): 2.41
  ΔP50 = P50d − P50c: −10.56 mmHg
  P50d (value in the presence of compound): 16.85 mmHg and 17.49 mmHg

## O=Cc1ccc(Br)s1 [5-Bromo-2-thiophenecarboxyaldehyde]
[1]
  n50 (Hill coefficient at 50% saturation in the presence of compound): 2.35
  ΔP50 = P50d − P50c: −6.63 mmHg
  P50d (value in the presence of compound): 21.96 mmHg and 20.24 mmHg

## CCc1ccc(C=O)o1 [Compound 5EF, 5-Ethyl-2-furfuraldehyde]
[2]
  predicted antisickling activities: lie between those of FUF and 5HMF
[1]; 5 mM compound
  n50 (Hill coefficient at 50% saturation): 1.77 ± 0.14
[1]; 5 mM compound, 37° C.
  P50: 10.13 ± 0.75 mmHg
[1]; [13]
  ΔP50: −15.71 mmHg

## O=Cc1ccc(CO)o1 [Compound 5HMF, 5-hydroxymethyl-2-furfuraldehyde]
[3]
  HbS adduct: 70% and 70 ± 10.0%
[4]
  compound binding in T state co-crystals: only weak binding
[2]; 1 mM compound, 4% oxygen
  Inhibition of sickling of SS cells: 13%
  Sickling of SS cells: 87%
[2]; 2 mM compound, 4% oxygen
  Inhibition of sickling of SS cells: 42%
  Sickling of SS cells: 58%
[5]; 5 mM
  inhibition of cell sickling, times more than FUF: ~2.5 times
[5]; [14]
  Inhibition of sickling of SS cells: 90%
  Sickling of SS cells: 10%
[6]; 5HMF 100 mg/kg
  percentage of sickled cells in the arterial blood: reduced the formation of POSCs; also recorded: reduced the percentage of sickled cells
[6]; 5HMF pretreatment
  survival of more than half of the mice: > 25 min
  survival time under hypoxia compared to control: significantly prolonged the survival time; also recorded: prolonged the survival time significantly; also recorded: about four times longer
[7]
  SS cells P50: 6.0 ± 1.2 mmHg
  SS cells ΔP50: −25.2 mmHg
[8]
  Hemolysate P50: 1.8 ± 0.3 mmHg
  Hemolysate ΔP50: −9.4 mmHg
[9]; 1 mM compound
  MCV: 62.5 fL
[9]; 2 mM compound
  MCV: 61.0 fL
[9]; 5 mM compound
  MCV: 61.4 fL
[9]
  changes in cell volumes of SS cells: did not result in changes in cell volumes
[1]; 1 mM compound
  n50 (Hill coefficient at 50% saturation): 2.08 ± 0.14
  ΔP50: −6.65 mmHg
  P50: 19.19 ± 1.51 mmHg
[1]; 2 mM compound
  n50 (Hill coefficient at 50% saturation): 1.98 ± 0.08
  ΔP50: −10.80 mmHg
  P50: 15.04 ± 0.51 mmHg
[1]; 5 mM compound
  n50 (Hill coefficient at 50% saturation): 1.88 ± 0.06
[1]; 5 mM compound, 37° C.
  P50: 8.32 ± 0.40 mmHg
[1]; [13]
  ΔP50: −17.52 mmHg
[1]
  effect on the OEC of whole blood: able to shift the OEC to the left

## Cc1ccc(C=O)o1 [Compound 5MF, 5-Methyl-2-furfuraldehyde]
[2]
  predicted antisickling activities: lie between those of FUF and 5HMF
[1]; 5 mM compound
  n50 (Hill coefficient at 50% saturation): 1.70 ± 0.06
[1]; 5 mM compound, 37° C.
  P50: 9.68 ± 0.24 mmHg
[1]; [13]
  ΔP50: −16.16 mmHg

## O=Cc1c(O)cccc1OCCCCC(=O)O [Compound 12C79]
[10]
  clinical toxicity: clinically non-toxic
[10]; intravenous infusion 40 mg/kg, patients with SCD
  compound-Hb adducts: more than 30%

## Cc1cc(C=O)cc(C)c1O [DMHB, 3,5-dimethyl-4-hydroxybenzaldehyde]
[11]
  shift of the OEC: shift the OEC toward the left

## O=Cc1ccc(O)c(C(=O)O)c1 [FSA, 5-formylsalicylic acid]
[11]
  shift of the OEC: shift the OEC toward the right

## O=Cc1ccco1 [FUF, 2-furfuraldehyde]
[3]
  HbS adduct: 24% and 24 ± 5.7%
[4]
  compound binding in T state co-crystals: only weak binding
[2]; 1 mM compound, 4% oxygen
  Sickling of SS cells: 100%
[2]; 2 mM compound, 4% oxygen
  Sickling of SS cells: 100%
[2]; Homo sapiens, Erythrocyte, 1 mM compound, 4% oxygen, read-out: Inhibition of sickling of SS cells
  inhibition at 1000 µM: 0%
[2]; Homo sapiens, Erythrocyte, 2 mM compound, 4% oxygen, read-out: Inhibition of sickling of SS cells
  inhibition at 2000 µM: 0%
[5]; [14]
  Sickling of SS cells: 70%
  inhibition at 5000 µM: 30%
[7]
  SS cells P50: 15.4 ± 1.7 mmHg
  SS cells ΔP50: −15.8 mmHg
[8]
  Hemolysate P50: 5.3 ± 0.6 mmHg
  Hemolysate ΔP50: −5.9 mmHg
[9]; 1 mM compound
  MCV: 60.3 fL
[9]; 2 mM compound
  MCV: 60.0 fL
[9]; 5 mM compound
  MCV: 62.8 fL
[9]
  changes in cell volumes of SS cells: did not result in changes in cell volumes
[1]; 5 mM compound
  n50 (Hill coefficient at 50% saturation): 2.30 ± 0.01
[1]; 5 mM compound, 37° C.
  P50: 14.49 ± 0.06 mmHg
[1]; [13]
  ΔP50: −11.35 mmHg

## CCOC(=O)C1CSC(c2ccc(CO)o2)N1 (stereo not shown) [MSDD1, 5-hydroxymethyl-2-furfural-thiazolidine-4-carboxylic acid ethyl ester]
[1]
  effect on the OEC of whole blood: does not have effect on the OEC

## COc1cc(C=O)ccc1O [Vanillin, vanillin, reference compound]
[5]; [14]
  Sickling of SS cells: 80%
  inhibition at 5000 µM: 20%
[10]
  clinical toxicity: clinically non-toxic
[7]
  SS cells P50: 17.7 ± 2.2 mmHg
  SS cells ΔP50: −13.5 mmHg
[12]; species not stated
  acute oral LD50: 1580 mg/kg
[12]; unit taken from the 5HMF value in the same sentence
  LD50: 1580 mg/kg
[9]; 5 mM compound
  MCV: 61.0 fL
[1]; 5 mM compound
  n50 (Hill coefficient at 50% saturation): 1.98 ± 0.23
[1]; 5 mM compound, 37° C.
  P50: 19.06 ± 1.98 mmHg
[1]; [13]
  ΔP50: −6.78 mmHg
